According to publication PMC7168933, “Design, Synthesis and Biochemical Evaluation of Novel Ethanoanthracenes and Related Compounds to Target Burkitt’s Lymphoma” (Pharmaceuticals, 2020):
Read-outs that look alike come from different tables or passages of the source.

What was measured:
[1] = tested on: DG-75 Burkitt lymphoma cell line (EBV−, chemoresistant); test: cells; settings: Homo sapiens, DG-75, 48 h; for viability at 1 µM: read-out: DG-75 Cell Viability % 1 μM, 1 μM, 48 h; for viability at 10 µM: read-out: DG-75 Cell Viability % 10 μM, 10 μM, 48 h; for IC50: read-out: IC50 DG-75 48 h
[2] = Viability of peripheral blood mononuclear cells (alamarBlue); assay type: cell-based; settings: human, peripheral blood mononuclear cells (PBMCs); for viability at 24 h, 0.5 µM: read-out: viable PBMCs at 0.5 µM; for viability at 24 h, 1 µM: read-out: viable PBMCs at 1 µM
Procedure: BL cells were seeded in a 96-well plate (1–5 × 10^4 cells per 200 µL in well). Cells were treated with the desired drug concentration for a predetermined time frame and incubated as required. alamarBlue (20 µL) was added to each well and the cells were incubated at 37 °C in the dark for 4 h. Plates were then recorded on a fluorescence plate reader (SpectraMax Gemini, Molecular Devices) at 544 nm (excitement) and 590 nm (emission). Experiments were performed in triplicate using controls of reagent, medium and vehicle (100% viability). Taxol (10 μM) was used as the control drug (90% cytotoxicity) for both cell lines. The experiments were performed in triplicate and the mean value for three independent experiments was calculated.
Blood was obtained from healthy donors (n = 2) after informed consent was received. The blood was then placed into a 50 mL falcon tube and diluted with phosphate-buffered saline (PBS), 1:2. The blood was separated into red blood cells, white blood cell ring and serum using LymphoPrep. The blood was slowly added to Ficoll pague plus (20 mL). The tubes containing the blood were then centrifuged for 30 min at 1700 g. Following transfer of the white blood cell ring to a new 50 mL tube, the volume was adjusted to 50 mL. The samples were again centrifuged for 10 min at 1700 g. The, supernatant liquid was removed; and this step was repeated. The resultant pellet was then resuspended in 10 mL of complete Iscove’s Modified Dulbecco’s (IMDM) media (10% FBS, 0.1% Ciprofloxacin (10 mg/mL)) for use in the cell viability experiments.

DG-75 cell line = test: Lactate dehydrogenase (LDH) release cytotoxicity assay in DG-75 cells; assay type: cell-based; settings: percentage of total LDH release
Procedure: (§1) The CytoTox 96 non-radioactive cytotoxicity assay (Promega Corporation; 2800 Woods Hollow Road, Madison, WI, USA) was used to determine the cyctotoxicity of selected compounds. BL cells were incubated for 24 hr and then treated with the selected compounds (at 10 μM concentration) 15, 16b and 16c as in the cell viability assay. After 24 or 48 h as appropriate, the lysis solution (10X), (20 μL) was added. The cells were incubated for a further 1 h to ensure complete death. The supernatant (50 μL) was removed and transferred to a new 96-well plate. “Substrate mix″ (50 μL) was added and the plate was retained in the dark at RT for 30 min. “Stop solution″ (50 μL) was added to each well and the absorbance was recorded at 490 nm with a Dynatech MR5000 plate reader and the cell death was calculated.

[3] = tested on: MUTU-1 Burkitt lymphoma cell line (EBV+); test: cells; settings: Mutu-1, 24 h; for IC50: read-out: IC50 MUTU-I 24 h; for viability at 1 µM: read-out: MUTU-1 Cell Viability % 1 μM, 1 μM, 24 h; for viability at 10 µM: read-out: MUTU-1 Cell Viability % 10 μM, 10 μM, 24 h
[4] = tested on: MUTU-1 Burkitt's lymphoma cell line; test: FITC Annexin V/PI FACS analysis of apoptosis in MUTU-I cells; assay type: cell-based; settings: 24 h
Procedure: (§2) BL cells DG-75 and MUTU-1 (750,000) were treated with the specified concentration of the selected compound and incubated for 24 h (MUTU-1) or 48 h (DG-75) with taxol as the positive control. Samples were harvested by centrifugation and the pellets were rinsed with 0.5 mL of Ca^2+ Annexin V binding buffer (0.1 M HEPES, pH 7.4; 1.4 M NaCl; 25 mM CaCl2) each and pelleted again by centrifugation. Supernatants were decanted and the pellets were suspended again in 50 µL FITC Annexin V (diluted 1:33 in Ca^2+ Annexin V binding buffer), the samples were then placed on ice and incubated for 10 min in the dark. After the incubation period 0.5 mL of Ca^2+ Annexin V binding buffer was added and samples were pelleted by centrifugation. The supernatant was decanted and the pellet was suspended in PI solution (500 µL; 0.5 µg/mL). After 1 h, the samples were recorded using a CyAn ADP flow cytometer (Beckman Coulter Inc., Brea, CA, USA). 10,000 cells were analysed with the Flowjo software package. Taxol was used as a positive control for cell death.

DG-75 cells = test: Effect of NAC antioxidant pre-treatment on viability of DG-75 cells (alamarBlue); assay type: cell-based; settings: Homo sapiens, 1 µM compound, 48 h, no NAC, read-out: viable DG-75 cells without NAC
Procedure: Cell proliferation of DG-75 cells was determined with an alamarBlue assay (seeding density 2 × 10^4 cells/mL per well for 96-well plates), with vehicle control ethanol 1% (v/v). Cells were retained for 24 h and then pre-treated with NAC (5 mM) for 1 h, followed by compounds 15, 16b and 16c at 1 μM for 48 h. Cell viability was measured by alamarBlue assay (mean of three independent experiments).
N-Acetylcysteine (Sigma) was dissolved in sterile water (100 mM). Fresh solutions were prepared for each experiment. A 96 well plate was seeded with 2 × 10^4 cells/well for DG-75 cells. After 23 h, the DG-75 cells were then pre-treated with NAC (5 mM) for 1 h before compound treatment. The wells were then treated with the desired drug concentration (1 µM) for a predetermined time frame (48 h). After treatment and incubation, each well was treated with 20 µL of alamarBlue (37 °C) and the plate was incubated in the dark at 37 °C for 4–6 h. Fluorescence of the 96 well plates was then recorded at 590 nm (excitation 544 nm), as described for ‘alamarBlue viability assay’ (above). The percentage of viable cells remaining with NAC pre-treatment was compared to the percentage of viable cells remaining without NAC pre-treatment in order to determine the implication of ROS in the mechanism of cell death induced.

[5] = tested on: DG-75 Burkitt's lymphoma cell line; test: FITC Annexin V/PI FACS analysis of apoptosis in DG-75 cells; assay type: cell-based; settings: 48 h
Procedure: as §2

[6] = tested on: MUTU-1 Burkitt lymphoma cell line (EBV+); settings: 24 h
[7] = HPLC stability study in phosphate buffers; assay type: physicochemical
Procedure: The HPLC stability studies for compound 16a were performed using a Symmetry® column (C18, 5 µm, 4.6 × 150 mm), detector Waters 2487 Dual Wavelength Absorbance, HPLC pump: Waters 1525 binary and Autosampler: Waters 717 plus (Waters Corporation, Milford, MA, USA). Samples were detected at wavelength of 254 nm. The chromatography was performed with the following optimised conditions: mobile phase: (acetonitrile (80%): water (20%)), run time: 10 min, flow rate: 1 mL/min, with detection at 254 nm. Compound 16a (5 mg) was dissolved in the mobile phase (10 mL) to provide the stock solution for the experiment. The phosphate buffers were prepared following the British Pharmacopoeia monograph 2019 at the selected pH 4, pH 7.4 and pH 9. To a volume of the appropriate buffer (1 mL), stock solution (30 μL) was added, and the solution was shaken and then used immediately for the experiment. Samples of the solution were then analysed over the following 48 h period at selected time intervals (t = 0 min, 5 min, 30 min, 60 min, 90 min, 120 min, 24 h and 48 h).

[8] = tested on: DG-75 Burkitt lymphoma cell line (EBV−, chemoresistant); settings: 48 h
MUTU-I cell line = test: Lactate dehydrogenase (LDH) release cytotoxicity assay in MUTU-I cells; assay type: cell-based; settings: percentage of total LDH release
Procedure: as §1

COc1ccc(N2C(=O)C3C4c5ccccc5C(/C=C/[N+](=O)[O-])(c5ccccc54)C3C2=O)cc1 (stereo not drawn) [Compound 16c, (E)-13-(4-Methoxyphenyl)-9-(2-nitrovinyl)-9,10-dihydro-9,10-[3,4]epipyrroloanthracene-12,14-dione] showed a viability at 1 µM [1] of 28.4%, a viability at 10 µM [1] of 2.1% and an IC50 [1] of 560 nM. For the same molecule, the viability at 24 h, 0.5 µM [2] was roughly 99%, the viability at 24 h, 1 µM [2] was 72 to 81% and the “LDH release (cytotoxicity) in DG-75 at 10 µM” value (DG-75 cell line) was 25%. The IC50 [3] was 200 nM, the viability at 1 µM [3] was 0.19% and the viability at 10 µM [3] was 1.1%. The “apoptosis in MUTU-I at 0.5 µM” value [4] was greater than 90%, the viability at 1 µM (DG-75 cells) was 6 to 23% and the “apoptosis in DG-75 at 1 µM” value [5] was 29%.
O=C1C2C3c4ccccc4C(C=C[N+](=O)[O-])(c4ccccc43)C2C(=O)N1c1ccccc1 (stereo not drawn) [Compound 16a, (E)-9-(2-Nitrovinyl)-13-phenyl-9,10-dihydro-9,10-[3,4]epipyrroloanthracene-12,14-dione] gave a viability at 10 µM [1] of 1.1%, an IC50 [1] of 710 nM and an IC50 [3] of 210 nM. The viability at 1 µM [3] was 10%, the viability at 10 µM [3] was 1.4% and the “MUTU-1 Cell Viability % 1 μM” value [6] was 10.3%. The “apoptosis in MUTU-I at 0.2 µM” value [4] was 46%, the “apoptosis in MUTU-I at 0.5 µM” value [4] was “over 80%” and the “apoptosis in MUTU-I at 1 µM” value [4] was “over 80%”. For the same molecule, the “apoptosis in MUTU-I at 10 µM” value [4] was “over 80%”, the “apoptosis in DG-75 at 10 µM” value [5] was 92% and the “apoptosis in DG-75 at lower concentrations” value ([5]; concentrations lower than 10 µM) was less than 5%. For the same molecule, the half-life at 14.6 µg/mL ([7]; pH 4 phosphate buffer, read-out: half-life (t½) at pH 4 (converted)) was 11 h, the half-life at 14.6 µg/mL ([7]; pH 7.4 phosphate buffer, read-out: half-life (t½) at pH 7.4 (converted)) was 10.5 h and the half-life at 14.6 µg/mL ([7]; pH 9 phosphate buffer, read-out: half-life (t½) at pH 9) was greater than 24 h. The “DG-75 Cell Viability % 1 μM” value [8] was less than 6%.
Work on O=C1C2C3c4ccccc4C(/C=C/[N+](=O)[O-])(c4ccccc43)C2C(=O)N1CCCCCCN1C(=O)C2C3c4ccccc4C(/C=C/[N+](=O)[O-])(c4ccccc43)C2C1=O (stereo not drawn) [Compound 15, 13,13′-(Hexane-1,6-diyl)bis(9-((E)-2-nitrovinyl)-9,10-dihydro-9,10[3,4]epipyrroloanthracene-12,14-dione)] yielded a viability at 1 µM [1] of less than 5%, a viability at 10 µM [1] of 0% and an IC50 [1] of 240 nM. It also gave a viability at 24 h, 0.5 µM [2] of roughly 99%, a viability at 24 h, 1 µM [2] of 72 to 81% and an IC50 [3] of 90 nM. For the same molecule, the viability at 1 µM [3] was less than 5%, the viability at 10 µM [3] was 2.1% and the “MUTU-1 Cell Viability % 1 μM” value [6] was 4.5%. The “apoptosis in MUTU-I at 0.2 µM” value [4] was greater than 90%, the viability at 1 µM (DG-75 cells) was 6 to 23% and the “apoptosis in DG-75 at 10 µM” value [5] was 95%. For the same molecule, the “DG-75 Cell Viability % 1 μM” value [8] was 3.8%.
O=C1C2C3c4ccccc4C(C=C[N+](=O)[O-])(c4ccccc43)C2C(=O)N1c1ccc(Cl)cc1 (stereo not drawn) [Compound 16b, (E)-13-(4-Chlorophenyl)-9-(2-nitrovinyl)-9,10-dihydro-9,10-[3,4]epipyrroloanthracene-12,14-dione] gave a viability at 1 µM [1] of less than 6%, a viability at 10 µM [1] of 0.52% and an IC50 [1] of 450 nM. For the same molecule, the viability at 24 h, 0.5 µM [2] was roughly 99%, the viability at 24 h, 1 µM [2] was 72 to 81% and the “LDH release (cytotoxicity) in MUTU-I at 1 µM” value (MUTU-I cell line; 1 µM) was 5%. For the same molecule, the “LDH release (cytotoxicity) in MUTU-I at 10 µM” value (MUTU-I cell line; 10 µM) was 2%, the IC50 [3] was 170 nM and the viability at 1 µM [3] was 5%. The viability at 10 µM [3] was 0.38%, the “apoptosis in MUTU-I at all concentrations” value ([4]; all concentrations (0.2–10 µM)) was “over 80%” and the viability at 1 µM (DG-75 cells) was 6 to 23%. For the same molecule, the “apoptosis in DG-75 at 1 µM” value [5] was 61% and the “DG-75 Cell Viability % 1 μM” value [8] was 5.5%.
O=[N+]([O-])/C=C/c1c2ccccc2cc2ccccc12 [Compound 12a, (E)-9-(2-nitrovinyl)anthracene] gave a viability at 1 µM [1] of 94.6%, a viability at 10 µM [1] of less than 14% and an IC50 [1] of 2080 nM. The IC50 [3] was 2570 nM, the viability at 1 µM [3] was 81.9% and the “MUTU-1 Cell Viability % 10 μM” value ([6]; 10 μM) was 5.9%. For the same molecule, the “apoptosis in MUTU-I at 1 µM” value [4] was “little effect”, the “apoptosis in MUTU-I at 10 µM” value [4] was 90% and the “apoptosis in DG-75 at 1 µM” value [5] was 10%. For the same molecule, the “apoptosis in DG-75 at 10 µM” value [5] was 82% and the “DG-75 Cell Viability % 10 μM” value ([8]; 10 μM) was 14.0%.
O=C1C2C(C(=O)N1c1ccccc1)C1(/C=C/[N+](=O)[O-])c3ccccc3C2(Cl)c2ccccc21 (stereo not drawn) [Compound 16d, (E)-9-Chloro-10-(2-nitrovinyl)-13-phenyl-9,10-dihydro-9,10-[3,4]epipyrroloanthracene-12,14-dione] gave a viability at 1 µM [1] of less than 14%, a viability at 10 µM [1] of 5.1% and an IC50 [1] of 590 nM. It also gave an IC50 [3] of 220 nM, a viability at 1 µM [3] of 0.77% and a viability at 10 µM [3] of 0.41%. For the same molecule, the “cell viability in MUTU-I cell line (1 and 10 μM together or concentration not stated)” value ([6]; 1 and 10 μM) was 0.4–13.5%, the “apoptosis in MUTU-I at 0.2 µM” value [4] was 63% and the “apoptosis in DG-75 at 1 µM” value [5] was 15%. For the same molecule, the “apoptosis in DG-75 at 10 µM” value [5] was 44%, the “DG-75 Cell Viability % 1 μM” value [8] was 13.5% and the “cell viability in DG-75 cell line (1 and 10 μM together or concentration not stated)” value ([8]; 1 and 10 μM) was 0.4–13.5%.
